Reference: paper PMC7217250, “Efficiency of vanillin in impeding metabolic adaptability and virulence of Candida albicans by inhibiting glyoxylate cycle, morphogenesis, and biofilm formation” (Current Medical Mycology, 2020)

Target: T1, Mls1p (malate synthase, MLS) (Candida albicans, UniProt Q5APD2)
T1 construct: gene MLS1; native enzyme in crude extract of C. albicans cells; not purified
Assay: spectrophotometric 5-thio-2-nitrobenzoic acid formation at […] nm, crude extract
Assay type: cell-based

T1 sequence (Q5APD2 entry or part of it): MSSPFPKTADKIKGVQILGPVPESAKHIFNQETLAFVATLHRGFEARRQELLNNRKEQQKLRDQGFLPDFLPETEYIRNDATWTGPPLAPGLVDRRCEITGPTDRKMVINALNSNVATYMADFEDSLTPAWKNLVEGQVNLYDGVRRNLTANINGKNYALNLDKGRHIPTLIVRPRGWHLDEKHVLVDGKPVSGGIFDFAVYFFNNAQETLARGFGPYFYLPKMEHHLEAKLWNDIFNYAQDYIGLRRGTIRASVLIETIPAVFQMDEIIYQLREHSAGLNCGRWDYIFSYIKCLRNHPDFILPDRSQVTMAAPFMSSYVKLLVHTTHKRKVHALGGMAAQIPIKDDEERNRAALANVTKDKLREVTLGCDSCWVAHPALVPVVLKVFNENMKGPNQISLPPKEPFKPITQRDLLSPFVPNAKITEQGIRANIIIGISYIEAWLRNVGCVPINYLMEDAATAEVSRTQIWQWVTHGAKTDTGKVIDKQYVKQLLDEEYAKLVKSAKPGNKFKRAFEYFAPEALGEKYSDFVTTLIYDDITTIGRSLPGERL

CC(=O)SCCNC(=O)CCNC(=O)[C@H](O)C(C)(C)COP(=O)(O)OP(=O)(O)OC[C@H]1O[C@@H](n2cnc3c(N)ncnc32)[C@H](O)[C@@H]1OP(=O)(O)O [acetyl CoA]
spectrophotometric 5-thio-2-nitrobenzoic acid formation at 412 nm, crude extract: acetyl CoA (Sigma Chemical Co., USA) were used as the substrates for the ICL and MLS
